In publication PMC12830207, “Targeting the protein–protein interaction between the CDC37 cochaperone and client kinases by an allosteric RAF dimer breaker” (The Journal of Biological Chemistry, 2025):
Entries after “also recorded” stand apart in the source; their conditions may differ.

Columns and labels:
[1] = system: CDC37–CRAF interaction; test: Co-IP of CDC37-FLAG with CRAF-HA in HEK293; type: cell-based, human (HEK293); conditions: HEK293, 25 μM braftide, bortezomib pretreatment
Experimental: (§1) HEK293 cells were seeded at 1(10)^6 cells per well for a 6-well plate or 5(10)^6 for 10 cm dishes and incubated until 40% to 60% confluency. Transfection was carried out using a 1:3 DNA:PEI-MAX ratio in OPTI-MEM and allowed 48 h for protein expression. For peptide assays, 48 h post-transfection, cells were treated with TAT–braftide carried in OPTI-MEM at indicated concentrations. Cells were harvested in cold PBS. Harvested cells were lysed in 4% SDS or modified radioimmunoprecipitation assay (RIPA) for co-IP experiments. Quantification of total protein by the bicinchoninic acid assay was carried out according to the manufacturer's protocols (Pierce; catalog no.: 23225).
(§2) Transfected HEK293 cells were treated with the indicated treatments and harvested in cold PBS. […] Samples were analyzed via immunoblot.
(§3) Western blot band densities were quantified with ImageJ software (National Institutes of Health) and normalized to the indicated loading control. Statistical significance was determined through one-/two-way ANOVA, where indicated, followed by Tukey's honest significant difference post hoc test with corresponding p values (∗p < 0.05, ∗∗p < 0.002, ∗∗∗p < 0.0002, and ∗∗∗∗p < 0.0001). […]

[2] = system: CDC37–HSP90 interaction; test: Co-IP of CDC37-FLAG with HSP90 in HEK293; type: cell-based, human (HEK293); conditions: HEK293, 25 μM braftide, bortezomib pretreatment
Experimental: as §1, §2, §3

[3] = system: CRAF; test: CRAF ubiquitination (IP of MBP-CRAF-FLAG, ubiquitin immunoblot); type: cell-based, human (HEK293); conditions: HEK293, MBP-CRAF-FLAG, 50 μM braftide, bortezomib pretreatment
Experimental: as §1, §2, §3

[4] = system: HEK293 cells; test: Annexin V apoptosis assay, HEK293; type: cell-based, human; conditions: 0, 5, 10, 25, 50, 75, and 100 μM braftide, 4 h, n = 3
Experimental: (§4) HEK293 cells and HCT116 cells were treated with either control or braftide at the indicated concentrations for 4 h. After treatment, both the floating and adherent cell populations were collected and adjusted with PBS (final concentration: 1 × 10^5 cells/ml). The cells were then mixed with the Annexin V (Cytex; FCCH100108) reagent in a 5:1 ratio (100 μl of cells mixed with 20 μl of Annexin V reagent) and allowed to stain in the dark, at room temperature for 15 min. The cells were then analyzed on a Guava Muse Cell Analyzer (Millipore).

[5] = system: HCT116 cells; test: Annexin V apoptosis assay, HCT116; type: cell-based; conditions: for apoptotic cell death, braftide + 17-AAG combination versus 17-AAG monotherapy: HCT116, Annexin V, n=3, Fig. S12, B and C
Experimental: as §4

[6] = system: MAPK proteins (BRAF, CRAF, MEK, pMEK, ERK, pERK); test: Immunoblot of MAPK proteins in HCT116 cells; type: cell-based
Experimental: Western blot band densities were quantified with ImageJ software (National Institutes of Health) and normalized to the indicated loading control. Statistical significance was determined through one-/two-way ANOVA, where indicated, followed by Tukey's honest significant difference post hoc test with corresponding p values (∗p < 0.05, ∗∗p < 0.002, ∗∗∗p < 0.0002, and ∗∗∗∗p < 0.0001). All graph bars represent the mean ± SD with individual data points per biological replicate with corresponding p values.

[7] = system: HCT116 proteome; test: Global proteomic identification of braftide-regulated proteins (LC–MS/MS) in HCT116; type: cell-based, human; conditions: HCT116, 10 μM braftide, 1 h
Experimental: HCT116 cells were treated in the absence and presence of 10 μM TAT–braftide, 1 h, 37 °C. Cell pellets were harvested in PBS and cryopreserved. Samples were sent to be lysed and identified through MS in three biological replicates (LC–MS/MS; The Wistar Institute). Data were processed through the previously reported GO analysis via the Panther database ([42]) and plotted on Origin (OriginLab Corporation). For the volcano plot, the cutoff for the presented data is p = 0.01 (∗∗), q value <0.05 (Student's t test value adjusted for multiple comparisons using the Benjamini–Hochberg false discovery rate correction) and detected in at least two or more replicates. A total of 5405 proteins were identified, emphasizing a twofold change in NeonGreen and in red. Source data are available in the supporting information files.

[8] = system: HCT116 cells; conditions: HCT116, previously reported, readout not given; read-out: EC50, braftide, HCT116; cited from earlier work
From the text: Our findings highlight the therapeutic potential of targeting CDC37–client kinase interactions, as oncogenic kinases are intrinsically unstable and thus are more dependent on their association with the HSP90–CDC37 chaperone complex for stability and activation compared with their wildtype counterparts ([4]). […] HCT116 cells harbor an upstream KRAS […]–activating mutation, with a previously reported braftide ...

[9] = system: WM3629 cells; conditions: WM3629, reported; read-out: EC50, braftide, WM3629; cited from earlier work
From the text: Based on the observed synergistic effects of inhibiting the ternary complex, the antiproliferative effects were explored using combinatorial treatment in two RAF-dimer–dependent cell lines: HCT116 and WM3629. HCT116 cells mainly rely on the wildtype BRAF–CRAF heterodimer and BRAF–BRAF homodimer to relay the MAPK signal, whereas WM3629 cells contain the BRAF D594G mutant, which is a kinase-dead mutant and depends on dimerization with CRAF for activation ([34]).

[10] = system: BRAF–CRAF protein levels; conditions: cited from earlier work
From the text: RAF family members are known clients of the HSP90–CDC37 chaperone complex and rely on their interaction with the CDC37–HSP90 chaperone complex to maintain basal protein stability ([4]). […] Although the HSP90 and CDC37 interface is vast and dynamic ([7]), the αC helix–β4 loop is a well-defined structural motif conserved across RAF and other kinases ([29]). The RAF DIF, being ...

GRKKRRQRRRPQ-miniPEG-TRHVNILLFM [Braftide]
CDC37–CRAF complex [1]: reduced the CDC37–client BRAF–CRAF complex
CDC37–HSP90 interaction [2]: maintaining the CDC37–HSP90 interaction
CRAF ubiquitination [3]: increased CRAF ubiquitination
apoptosis (Annexin V), HEK293 [4]: triggers apoptosis
apoptosis (Annexin V), HEK293 ([4]; listed as braftide): triggered dose-dependent apoptosis
apoptosis (Annexin V), HCT116 ([5]; 0, 5, 10, 25, 50, 75, and 100 μM braftide, 4 h, n = 3, listed as braftide): triggered dose-dependent apoptosis; also recorded: HCT116 cells showed higher sensitivity to braftide compared with HEK293
apoptotic cell death, braftide + 17-AAG combination versus 17-AAG monotherapy [5]: synergizes with 17-AAG in HCT116 cells to trigger cell death at lower treatment concentrations
apoptotic cell death, braftide + 17-AAG combination versus 17-AAG monotherapy ([5]; listed as braftide): significant increase in apoptotic cell death with the combination therapy compared with monotherapy
inhibition by monotherapy at 500 nM ([6]; HCT116, 500 nM single agent, immunoblot): Neither 17-AAG nor braftide monotherapy exhibited obvious inhibition
MAPK pathway protein levels, proteomics samples ([6]; HCT116, 10 µM braftide, 1 hr, 37°C, n=3): decreases MAPK pathway protein levels
FoldChange Treat/NoTreat, COA3 ([7]; protein COA3 (Q9Y2R0), q-value 1.02E-05, LFQ, missing values imputed): 76.35
FoldChange Treat/NoTreat, HPX ([7]; protein HPX (P02790), q-value 0.000814707, LFQ): 99.13
FoldChange Treat/NoTreat, PDK2 ([7]; protein PDK2 (Q15119), q-value 1.74E-05, LFQ, missing values imputed): 40.24
FoldChange Treat/NoTreat, RNF169 ([7]; protein RNF169 (Q8NCN4), q-value 4.15E-05, LFQ, missing values imputed): 48.52
FoldChange Treat/NoTreat, TOMM6 ([7]; protein TOMM6 (Q96B49), q-value 1.36E-06, LFQ, missing values imputed): 129.15
EC50 [8]: 7.1 ± 0.5 µM
EC50 [9]: 11.1 ± 1.12 µM
degradation of BRAF–CRAF protein levels [10]: induces the degradation of BRAF–CRAF protein levels through the ubiquitin-26s proteasomal degradation system
